# “Also recorded” adds a separate entry of the source.
# Tests used:
# Human lung cancer A-427 = experiment: MTS cell proliferation, nanomolar antagonist, A-427; format: cell-based; settings: Aprepitant 1, 5 and 7 nM, vs cells grown in the absence of antagonist, time dependant
# Method: (§1) Cell cultures of various commercial tumour cell lines stated in table 13 were used. [table] […] The number of cells was quantified using a Coulter counter. […] The culture plates were grown in the presence of increasing concentrations of non-peptide NK1 receptor antagonists. To obtain the staining in the proliferation assays, 20 μl of MTS were added to each one of the wells of the cell culture plates 90 minutes before reading the samples in a multiscan spectrophotometer (TECAN Spectra classic, Barcelona, Spain) at 492 nm (assay wavelength) and 690 nm (reference wavelength). The different doses were tested in duplicate and each experiment was performed in triplicate. The antagonist Aprepitant was used at the following concentrations: 1 nanomolar -nM-, 5 nanomolar -nM- and 7 nanomolar -nM-. […] As proliferation control, the cells were grown in the absence of said antagonist. This is expressed in FIGS. 1 to 10.
# [1] = tested on: human lung cancer, reference HCC-44; experiment: Lung cancer HCC-44 tumours implanted s.c. in nude mice, Aprepitant alone; format: in vivo
# Method: (§2) Immunocompromised female mice, 5-6 weeks of age were used, nu/nu Balb/c nude mice, provided by Harlan Iberica Barcelona (Spain). They were kept at 24° C. and in sterile conditions with food and water “ad libitum”. They were injected with 2×10^7 tumour cells, corresponding to cancer (human lung cancer, reference HCC-44 supplied by DSMZ) in 200 μl of PBS subcutaneous route. The tumour size was measured and the mice were evaluated for their state of health and weight daily. The mice were randomized in nine groups when the tumours reached a volume of 75 mm^3. One of the groups was treated with 200 μl of placebo (control group) and the eight remaining groups with doses of 10 (group 1), 20 (group 2), 30 (group 3), 40 (group 4), 50 (group 5), 60 (group 6), 70 (group 7) and 80 (group 8) mg per kilogram of weight and day of the NK1 receptor antagonist Aprepitant. 3 animals were treated per group, during 28 days. All the mice were sacrificed at the end of the experiment.
# [2] = tested on: Human neuroblastoma KELLY; experiment: MTS cell proliferation, nanomolar antagonist, KELLY; format: cell-based; settings: Aprepitant 1, 5 and 7 nM, vs cells grown in the absence of antagonist, time dependant
# Method: as §1
# [3] = tested on: human melanoma; reference MEL-HO; experiment: Melanoma MEL-HO tumours implanted s.c. in nude mice, Aprepitant alone; format: in vivo
# Method: as §2
# Immunocompromised female mice, 5-6 weeks of age were used, in the same conditions as explained in example 1. They were injected with 2×10^7 tumour cells, corresponding to a melanoma cell line tumour (human melanoma; reference MEL-HO; supplied by DSMZ) in 200 μl of PBS by subcutaneous route. The tumour size was measured and the mice were evaluated for their state of health and weight daily. The mice were randomized in nine groups when the tumours reached a volume of 75 mm^3. One of the groups was treated with 200 μl of placebo (control group) and the eight remaining groups with doses of 10 (group 1), 20 (group 2), 30 (group 3), 40 (group 4), 50 (group 5), 60 (group 6), 70 (group 7) and 80 (group 8) mg per kilogram of weight and day of the NK1 receptor antagonist Aprepitant. 3 animals were treated per group, during 28 days. All the mice were sacrificed at the end of the experiment.
# [4] = tested on: Human B cell lymphoma BC-1; experiment: MTS cell proliferation, nanomolar antagonist, BC-1; format: cell-based; settings: Aprepitant 1, 5 and 7 nM, vs cells grown in the absence of antagonist, time dependant
# Method: as §1
# brain tumours = settings: Aprepitant 3 mg per kilogram of weight and day; mice; Lewis et al. 2013; cited from earlier work
# [5] = Aprepitant 10 mg/kg/day, 7 days
# [6] = Aprepitant 10 mg/kg/day, 14 days
# [7] = Aprepitant 10 mg/kg/day, 21 days
# [8] = Aprepitant 10 mg/kg/day, 28 days
# [9] = Aprepitant 20 mg/kg/day, 7 days
# [10] = Aprepitant 20 mg/kg/day, 14 days
# [11] = Aprepitant 20 mg/kg/day, 21 days
# [12] = Aprepitant 20 mg/kg/day, 28 days
# [13] = Aprepitant 30 mg/kg/day, 7 days
# [14] = Aprepitant 30 mg/kg/day, 14 days
# [15] = Aprepitant 30 mg/kg/day, 21 days
# [16] = Aprepitant 30 mg/kg/day, 28 days
# [17] = Aprepitant 40 mg/kg/day, 7 days
# [18] = Aprepitant 40 mg/kg/day, 14 days
# [19] = Aprepitant 40 mg/kg/day, 21 days
# [20] = Aprepitant 40 mg/kg/day, 28 days
# [21] = Aprepitant 50 mg/kg/day, 7 days
# [22] = Aprepitant 50 mg/kg/day, 14 days
# [23] = Aprepitant 50 mg/kg/day, 21 days
# [24] = Aprepitant 50 mg/kg/day, 28 days
# [25] = Aprepitant 60 mg/kg/day, 7 days
# [26] = Aprepitant 60 mg/kg/day, 14 days
# [27] = Aprepitant 60 mg/kg/day, 21 days
# [28] = Aprepitant 60 mg/kg/day, 28 days
# [29] = Aprepitant 70 mg/kg/day, 7 days
# [30] = Aprepitant 70 mg/kg/day, 14 days
# [31] = Aprepitant 70 mg/kg/day, 21 days
# [32] = Aprepitant 70 mg/kg/day, 28 days
# [33] = Aprepitant 80 mg/kg/day, 7 days
# [34] = Aprepitant 80 mg/kg/day, 14 days
# [35] = Aprepitant 80 mg/kg/day, 21 days
# [36] = Aprepitant 80 mg/kg/day, 28 days
smiles,measurement,setting,value
C[C@@H](O[C@H]1OCCN(Cc2n[nH]c(=O)[nH]2)[C@H]1c1ccc(F)cc1)c1cc(C(F)(F)F)cc(C(F)(F)F)c1 [Aprepitant],Proliferation of tumour cells (MTS),Human lung cancer A-427,increase was observed of proliferation
same,Tumour size (mean volume of the tumour),[1]; [5],210 ± 2 cubic millimeters
same,Tumour size (mean volume of the tumour),[1]; [6],190 ± 4 cubic millimeters
same,Tumour size (mean volume of the tumour),[1]; [7],165 ± 6 cubic millimeters
same,Tumour size (mean volume of the tumour),[1]; [8],135 ± 3 cubic millimeters
same,Tumour size (mean volume of the tumour),[1]; [9],205 ± 8 cubic millimeters
same,Tumour size (mean volume of the tumour),[1]; [10],170 ± 3 cubic millimeters
same,Tumour size (mean volume of the tumour),[1]; [11],145 ± 4 cubic millimeters
same,Tumour size (mean volume of the tumour),[1]; [12],110 ± 4 cubic millimeters
same,Tumour size (mean volume of the tumour),[1]; [13],185 ± 4 cubic millimeters
same,Tumour size (mean volume of the tumour),[1]; [14],150 ± 6 cubic millimeters
same,Tumour size (mean volume of the tumour),[1]; [15],135 ± 5 cubic millimeters
same,Tumour size (mean volume of the tumour),[1]; [16],105 ± 2 cubic millimeters
same,Tumour size (mean volume of the tumour),[1]; [17],155 ± 5 cubic millimeters
same,Tumour size (mean volume of the tumour),[1]; [18],130 ± 4 cubic millimeters
same,Tumour size (mean volume of the tumour),[1]; [19],120 ± 4 cubic millimeters
same,Tumour size (mean volume of the tumour),[1]; [20],95 ± 4 cubic millimeters
same,Tumour size (mean volume of the tumour),[1]; [21],130 ± 4 cubic millimeters
same,Tumour size (mean volume of the tumour),[1]; [22],115 ± 7 cubic millimeters
same,Tumour size (mean volume of the tumour),[1]; [23],105 ± 6 cubic millimeters
same,Tumour size (mean volume of the tumour),[1]; [24],85 ± 6 cubic millimeters
same,Tumour size (mean volume of the tumour),[1]; [25],110 ± 3 cubic millimeters
same,Tumour size (mean volume of the tumour),[1]; [26],95 ± 8 cubic millimeters
same,Tumour size (mean volume of the tumour),[1]; [27],80 ± 7 cubic millimeters
same,Tumour size (mean volume of the tumour),[1]; [28],65 ± 4 cubic millimeters
same,Tumour size (mean volume of the tumour),[1]; [29],95 ± 4 cubic millimeters
same,Tumour size (mean volume of the tumour),[1]; [30],80 ± 6 cubic millimeters
same,Tumour size (mean volume of the tumour),[1]; [31],65 ± 8 cubic millimeters
same,Tumour size (mean volume of the tumour),[1]; [32],40 ± 7 cubic millimeters
same,Tumour size (mean volume of the tumour),[1]; [33],70 ± 4 cubic millimeters
same,Tumour size (mean volume of the tumour),[1]; [34],55 ± 7 cubic millimeters
same,Tumour size (mean volume of the tumour),[1]; [35],40 ± 6 cubic millimeters
same,Tumour size (mean volume of the tumour),[1]; [36],25 ± 5 cubic millimeters
same,Proliferation of tumour cells (MTS),[2],increase was observed of proliferation
same,Tumour size (mean volume of the tumour),[3]; [5],235 ± 3 cubic millimeters
same,Tumour size (mean volume of the tumour),[3]; [6],215 ± 4 cubic millimeters
same,Tumour size (mean volume of the tumour),[3]; [7],190 ± 4 cubic millimeters
same,Tumour size (mean volume of the tumour),[3]; [8],170 ± 6 cubic millimeters
same,Tumour size (mean volume of the tumour),[3]; [9],210 ± 6 cubic millimeters
same,Tumour size (mean volume of the tumour),[3]; [10],200 ± 5 cubic millimeters
same,Tumour size (mean volume of the tumour),[3]; [11],175 ± 5 cubic millimeters
same,Tumour size (mean volume of the tumour),[3]; [12],150 ± 7 cubic millimeters
same,Tumour size (mean volume of the tumour),[3]; [13],195 ± 7 cubic millimeters
same,Tumour size (mean volume of the tumour),[3]; [14],185 ± 6 cubic millimeters
same,Tumour size (mean volume of the tumour),[3]; [15],160 ± 6 cubic millimeters
same,Tumour size (mean volume of the tumour),[3]; [16],140 ± 4 cubic millimeters
same,Tumour size (mean volume of the tumour),[3]; [17],175 ± 8 cubic millimeters
same,Tumour size (mean volume of the tumour),[3]; [18],160 ± 8 cubic millimeters
same,Tumour size (mean volume of the tumour),[3]; [19],140 ± 4 cubic millimeters
same,Tumour size (mean volume of the tumour),[3]; [20],110 ± 6 cubic millimeters
same,Tumour size (mean volume of the tumour),[3]; [21],160 ± 5 cubic millimeters
same,Tumour size (mean volume of the tumour),[3]; [22],150 ± 4 cubic millimeters
same,Tumour size (mean volume of the tumour),[3]; [23],125 ± 5 cubic millimeters
same,Tumour size (mean volume of the tumour),[3]; [24],100 ± 7 cubic millimeters
same,Tumour size (mean volume of the tumour),[3]; [25],145 ± 6 cubic millimeters
same,Tumour size (mean volume of the tumour),[3]; [26],135 ± 5 cubic millimeters
same,Tumour size (mean volume of the tumour),[3]; [27],115 ± 6 cubic millimeters
same,Tumour size (mean volume of the tumour),[3]; [28],85 ± 4 cubic millimeters
same,Tumour size (mean volume of the tumour),[3]; [29],125 ± 4 cubic millimeters
same,Tumour size (mean volume of the tumour),[3]; [30],105 ± 6 cubic millimeters
same,Tumour size (mean volume of the tumour),[3]; [31],90 ± 4 cubic millimeters
same,Tumour size (mean volume of the tumour),[3]; [32],80 ± 7 cubic millimeters
same,Tumour size (mean volume of the tumour),[3]; [33],100 ± 6 cubic millimeters
same,Tumour size (mean volume of the tumour),[3]; [34],95 ± 7 cubic millimeters
same,Tumour size (mean volume of the tumour),[3]; [35],65 ± 7 cubic millimeters
same,Tumour size (mean volume of the tumour),[3]; [36],65 ± 9 cubic millimeters
same,Proliferation of tumour cells (MTS),[4],increase was observed of proliferation
same,Reduction in brain tumour size,brain tumours,does not cause a reduction in brain tumour sizes; also recorded: does not produce reduction in the size of brain tumours
